{"source": "patent US9572786B2", "about": "“Use of capsiate or dihydrocapsidate” (Catholic University Industry Academy Cooperation Foundation, priority 2007, dated 2017)", "key": {"T cells": {"tested_on": "T cells", "assay": "Proliferation of T cells, thymidine (H3) incorporation", "type": "cell-based, C57/BL6 mouse", "conditions": "mouse spleen T cells; 25 uM; vs control group", "procedure": "T cells were isolated from mouse spleen in order to investigate the effect of capsiate on the proliferation of T cells. Specifically, the spleen of C57/BL6 mouse was taken out and pulverized as single cells. After lysing red blood cells using an RBC lysis buffer (Sigma, USA), other cells were washed 3 times using cell culture medium (RPMI 1640 complete medium). The cell culture medium is prepared by adding 10% FBS, 10 mM HEPES, 100 μg/mL penicillin, 100 μg/mL streptomycin, 2 mM L-glutamine, 1 mM sodium pyruvate and 50 uM 2-mercaptoethanol. From the cells, only the T cells were separated using a T cell enrichment column (R&D, USA).\n5×10^5 of the isolated T cells were placed on a 96-well plate and capsiate was treated at a concentration of 25 uM. Proliferation of T cells was induced by adding 0.1 μg/mL α-CD3a and 2 μg/mL α-CD28, or 1 μg/mL α-CD3a and 2 μg/mL α-CD28. The degree of cell proliferation was compared to that of the control group which was not treated with capsiate. Specifically, after culturing the T cells for 24 hours, thymidine (H3) was added at a concentration of 1 uCi per well and the T cells were harvested 16 hours later using a membrane filter (Skatron, England) and a cell harvester. The harvested T cells were lysed in LSC cocktail solution (Ultima Gold, PerkinElmer, USA) and H3's CPM value was measured using a beta counter (Packard, USA)."}, "Sprague dawley (SD) rats": {"tested_on": "Sprague dawley (SD) rats", "assay": "Retinal vascular permeability in streptozotocin induced diabetic retinopathy", "type": "in vivo, rat", "conditions": "intravitreally injected 1-week after streptozotocin, observed at 3 weeks with dextran FITC", "procedure": "Diabetes are induced by performing intraperitoneal injection of 60 mg/kg of streptozotocin (Sigma, St Louis, Mo., USA) into 8-week-old male Sprague dawley (SD) rats (250 g). 3 days later, serum glucose level was measured and rats having serum glucose level of […] and more are selected and used in experiments. Capsiate or capsaicin was intravitreally injected 1-week after the injection of streptozotocin, respectively. 3 weeks after the injection of streptozotocin, 0.5 ml of dextran FITC (25 mg/ml, MW 40K, Sigma, St Louis, Mo., USA) was injected through tail vein of tested rats to imaging retinal vascular pattern. Retinal tissues of the rats are isolated and observed by fluorescent microscopy (Olympus, Tokyo, Japan). The increase of retinal vascular permeability is observed in nonproliferative diabetic retinopathy, proliferative diabetic retinopathy and diabetic macular edema and result from cracks in vascular vessel due to breakdown of blood-retinal barrier (BRB)."}, "MMP-2": {"tested_on": "MMP-2", "assay": "Zymography of secreted MMP-2 after UV", "type": "cell-based, human", "conditions": "HaCaT culture medium; 10, 25, 50 μM; UV 100 J/m^2; 36 hours", "procedure": "Zymography was carried out in order to investigate the decrease of expression and activity of MMP-2 and MMP-9 in protein level.\n5×10^5 HaCaT cells were placed on a 60 mm Petri dish and cultured for 24 hours in DMEM containing 10% FBS. Subsequently, the cells were cultured for 24 hours in DMEM containing 1% FBS until starvation. Then, after treating with capsiate at different concentrations (10 μM, 25 μM, 50 μM) for 30 minutes, followed by washing 3 times with PBS, UV was irradiated at an intensity of 100 J/m^2. Immediately after the UV irradiation, the cells were washed again with PBS and further cultured for 36 hours in DMEM containing 1% FBS, which was treated with capsiate at the same concentration as in the pre-treatment. After collecting the culture medium, the activity of MMP-2 and MMP-9 proteins secreted from the cells into the medium was measured. To this end, the mediums obtained from the same number of cells were concentrated to the same volume, and the temperature was maintained at 4° C. in order to avoid the effect on the protein activity.\nThus prepared sample was subjected to electrophoresis at 4° C. using 7.5% acrylamide gel containing gelatin but without sodium dodecyl sulfate (SDS). […]"}, "MMP-9": {"tested_on": "MMP-9", "assay": "MMP-9 mRNA in mouse skin, RT-PCR", "type": "in vivo", "conditions": "mouse tissue of Example 5; normalized using GAPDH", "procedure": "mRNA was extracted from the mouse tissue of each test group of Example 5 and the level of expression thereof was evaluated in order to investigate the effect of capsiate on the expression of MMP-2 and MMP-9 induced by angiogenesis and immune response.\nFor RNA extraction from the tissue, each mouse tissue was subjected to skin biopsy, quickly frozen in liquid nitrogen and finely ground using a mortar. RNA was extracted from the mouse tissue using Trizol (Invitrogen, USA). PCR (PTC-225 Peltier thermal cycler, MJ Research, USA) was carried out using the RNA as template and using a commercial kit (reverse transcription system, Qiagen, USA). As a result, cDNA for each test group was prepared.\nRT-PCR (Rotor Gene 6 series, Corbett Research, Australia) was carried out using thus prepared cDNA as template and using MMP-2 and MMP-9 primers (Qiagen, USA). The level of mRNA expression for MMP was normalized using GAPDH. The level of expression was compared with that of the non-treated group, which was treated with acetone only."}, "VEGF": {"tested_on": "VEGF", "assay": "VEGF expression in mouse skin, Western blotting", "type": "in vivo", "conditions": "treated prior to UV irradiation", "procedure": "In order to investigate the effect of capsiate on various intracellular angiogenesis-related expression factors, the inhibition effect of capsiate on angiogenesis factors induced by UV was evaluated using the mouse tissue of Example 5.\nWestern blotting was carried out in the same manner as Example 6 using the proteins isolated from the mouse skin tissue of each test group in Example 6, in order to investigate of capsiate on VEGF, which plays an important role in angiogenesis. In order to investigate the level of VEGF expression, VEGF antibody (Santa Cruz, USA) and HRP-conjugated secondary antibody (1:10,000, Zymed) were used."}}}
{"smiles": "COc1cc(COC(=O)CCCC/C=C/C(C)C)ccc1O", "note": "[capsiate]", "values": [{"measurement": "proliferation of T cells induced by α-CD3a and α-CD28", "setting": "T cells", "result": "significant inhibition"}, {"measurement": "increment of retinal vascular permeability", "setting": "Sprague dawley (SD) rats", "result": "inhibited"}, {"measurement": "expression and activity of MMP-2 (zymography)", "setting": "MMP-2", "result": "inhibited expression and activity"}, {"measurement": "expression and activity of pro-MMP-2 (zymography)", "setting": "MMP-2", "result": "inhibited expression and activity"}, {"measurement": "expression of MMP-9 (mRNA) in mouse skin tissue", "setting": "MMP-9", "result": "decreased"}, {"measurement": "level of VEGF expression in the mouse skin tissue", "setting": "VEGF", "result": "decreased"}]}
